Literature values in patent publication US20230248696A1, “LENALIDOMIDE PRODRUGS, POLYMERIC CONJUGATES, AND FORMULATIONS THEREOF, AND THEIR USES FOR THE TREATMENT OF MULTIPLE MYELOMA” (DYNAMIC BIOLOGICS INC., priority 2019, published 2023).

Experiments:
[1] = not given; remark: listed apart in the source
[2] = high solubility and low permeability
KG-1 cells = details: cell line without chromosome 5 deletions
[3] = test system: TNF-α, IL-1β, IL-6 and IL-12
[4] = test system: IL-10, IL-2 and Interferon gamma (IFN-γ); details: peripheral blood mononuclear cells
IL-2 = details: in vitro, versus racemic lenalidomide
TNF-alpha = details: in vitro, versus racemic lenalidomide
[5] = in vitro, versus racemic lenalidomide

Row | reduction of maximal plasma concentration (Cmax) by co-administration with food (co-administration with food) [%] | oral lenalidomide dose absorbed (oral, fasting conditions) [%] | reduction of area under the concentration-time curve (AUC) by food (oral, with food) [%] | reduction of maximum concentration (Cmax) by food (oral, with food) [%] | patients with dyspepsia ([1]; multiple myeloma patients treated with lenalidomide) [%] | BCS class [2] | inhibition of COX-2 expression (cyclooxygenase-2 (COX-2)) | Compound | patients discontinuing maintenance therapy because of neurotoxicity ([1]; maintenance therapy) [%] | inhibiting growth of Namalwa cells (Namalwa cells) | inhibiting growth of KG-1 cells (KG-1 cells) | inhibition of COX-1 expression (COX-1) | inhibition of pro-inflammatory cytokines TNF-α, IL-1β, IL-6 and IL-12 [3] | production of IL-10, IL-2 and IFN-γ [4] | potency for IL-2 induction (increased production) (IL-2) | potency for TNF-alpha inhibition (TNF-alpha) | potency for anti-proliferative activities [5]
1 | 36 | > 90 | 20 | 50 | 20 | 3 | inhibits | Nc1cccc2c1CN(C1CCC(=O)NC1=O)C2=O (racemic) [lenalidomide, 3-(4′ aminoisoindoline-1′-one)-1-piperidine-2,6-dione] | 75 | effective | much less effective | not | potent inhibitor | increases production | – | – | –
2 | – | – | – | – | – | – | – | [2H]C1([2H])C(=O)NC(=O)[C@@]([2H])(N2Cc3c(N)cccc3C2=O)C1([2H])[2H] [CTP-221] | – | – | – | – | – | – | greater potency compared to racemic lenalidomide | greater potency compared to racemic lenalidomide | greater potency compared to racemic lenalidomide
